Laboratory results from patent US10953071B2, “Compositions and methods for treatment of intracellular damage and bacterial infection” (priority 2011, dated 2021).
“Also recorded” adds a separate entry of the source. Where two headings read alike, the source gives them in different places.

Key:
[1] = test system: bone marrow derived phagocytes exposed to Mtb; format: cell-based, mouse
C57bl6 mice = details: 0.3 nmol/g i.p.
Protocol: Peritonitis was induced by injecting 3 ml 4% thioglycolate i.p. and after 20 hours, the mice were anaesthetized and the peritoneal cavity was flushed with 5 ml sterile PBS. Subsequently, monocytes/macrophages were quantified with F4/80 and CD11b in flow cytometry.
Peritonitis was induced by injecting 3 ml 4% thioglycolate i.p. and after 20 hours, the mice were anaesthetized and the peritoneal cavity was flushed with 5 ml sterile PBS. Subsequently, monocytes and macrophages were quantified with F4/80 and CD11b in flow cytometry.

T cells = details: monocytes 10 days with 200 nM PIF, co-culture 4 days, anti-CD3
Protocol: (§1) Mouse splenocytes were used for mixed Lymphocytes Reaction (MLR). Balb/c cells were cultured in the presence of irradiated C57/Bl cells for 4 days. […] Cell proliferation was tested by H3 Tymidine uptake assay. […] One representative experiment is shown out of four performed. […] Anti-CD3 antibodies were added to the medium for T cell activation. Cell proliferation was tested by H3 Thymidine uptake. […] At day 7, 100 ng/ml IFN γ was added. After 10 days cells were analyzed by FACS analysis using anti-B7-H1 antibodies. FIG. 2D illustrates murine macrophages were cultured with GM-CSF for 10 days. IFN-γ was added to the culture at day 7 for cell activation. […] This is relevant since B7-H1 is one of the newly defined inhibitory B7 family molecules. It is known that IFN gamma potently stimulates B7-H1 expression on APC. […] THP-1 cells were incubated for 48 hours, then were stimulated with […] and collected at 0, 1, 8, 12 and 24 hour time points. […] The 8 hour time point was selected to allow time for cell stimulation. The gene regulation comes quickly and the selected time point allows enough time for stimulation and not over/under. […] In the last 24 hours of the experiment, LPS was added to the culture for cell activation. Greiss reagent test was performed to detect NO secretion to the supernatant.

THP-1 cells [2] = test system: THP-1 cells
Protocol: as §1

[3] = test system: Balb/c splenocytes with irradiated C57/Bl cells; details: 4 days; 150 nM and 200 nM PIF significant
Protocol: as §1

B7-H1 = details: 200 nM PIF, 10 days, IFN γ at day 7
Protocol: as §1

[4] = test system: stimulated human T lymphocytes; assay: Cytokine production by anti-CD3/CD28 stimulated human mononuclear cells with Kv1.3 and IDE inhibitors; format: cell-based
Protocol: Peripheral blood was obtained from two healthy donors. Mononuclear cells were purified by Ficol-Hypaque centrifugation. […] The culture supernatants were collected 24 hours post-treatment and were assayed for eleven Th1/Th2 cytokines using a multiplex system (Bender, Cat. No. BMS810FF): IL-1beta, IL-2, IL-4, IL-5, IL-6, IL-8, IL-10, IL-12p70, TNF-alpha, TNF-beta, IFN-gamma.

Ca++ mobilization = test system: Ca++ mobilization
Protocol: FITC-sPIF binding to PBMCs subsets was determined using flow cytometry. sPIF's effect on Ca++ mobilization was tested by Flex station.

ApoE−/− mice = assay: Atherosclerosis model, ApoE−/− mice fed high fat Western diet; format: in vivo, mouse
Protocol: Aortic root and arch sections were stained with HE. The mean atherosclerotic area (μm2)±SEM was quantified.
ORO histology was employed to identify lipids in the mouse atherosclerotic plaque. Lipids were quantified by red signal intensity percentage area of plaque±SEM. […] All animals still had very high cholesterol levels and to obtain a reading, the plasma was diluted to 1:10. After analysis, no statistical difference was seen between any group using one way ANOVA paired with Tukey's Multiple Comparison Test. […]
Treatments were administered via 150 μL i.p. injection every 3rd day, for a total of 7 weeks.

[5] = test system: RAW (Macrophage cell line); details: PIF 200 nM, 2 or 5 day incubation, no LPS
Protocol: as §1
In the last 24 hours of the experiment, LPS was added to the culture for cell activation. […]

[6] = Surface Plasmon Resonance, LPS binding to PIF-labeled sensor surface; set-up: species or system E. coli; details: LPS 5, 25 and 100 μM, immobilized peptide, preliminary results
Protocol: Surface Plasmon Resonance spectroscopy (SPR) was used to evaluate LPS and LPS receptors binding (TLR4-MD2 and CD14) to the PIF-labeled sensor surface. Two chemotypes of LPS (From E. coli O55:B5 and E. coli EH100) at 3 concentrations (5, 25 and 100 μM) were tested.

Nos2 = details: mouse, in vivo
PBMCs = assay: Cytokine secretion of naïve and stimulated PBMCs; format: cell-based, human; details: for TH2 and TH1 cytokines secretion in activated PBMCs: anti-CD3 or anti-CD3/anti-CD28 stimulation
Protocol: FIG. 3A and FIG. 3B illustrate that mitogen stimulation enhances FITC-PIF binding to T and B cell populations. PBMC were cultured with PHA for 24 h. Binding of FITC-PIF to different PBMC populations was determined by two color flow cytometry. Binding was low (<10% in unstimulated cells a, upper panel from left to right) CD4+, CD8+, NK, (CD56+) and B (CD19+) cells. However, it led to a ˜30-fold increase in binding to b (lower panel from left to right), CD4+, CD8+ and B (CD19+) cells. Binding was unchanged for NK cells, even after a 72 hour incubation period. FIG. 3C, FIG. 3D, FIG. 3E, and FIG. 3F illustrate that sPIF promotes TH2/TH1 cytokine bias in stimulated PBMCs. […] FIG. 3B illustrates sPIF (50 nM); FIG. 3C illustrates PIFscr (50 nM); FIG. 3D illustrates sPIF (50 nM)+anti-CD3 mAb; FIG. 3E illustrates PIFscr+anti-CD3 mAb. sPIF affected variably stimulated PBMCs individual cytokines secretion. In contrast, some cytokine secretion in naïve PBMCs decreased (not shown). […] Cytokine secretion determined by Luminex 10-plex. […] PBMCs were cultured in the presence of anti-CD3/anti-CD28-Mab for 24-48 hours. […] The effect on PBMCs at 48 hours was less pronounced (data not shown). At the end of experiment mRNA was extracted and global gene expression was analyzed by using an Affymetrix chip.

THP-1 cells [7] = test system: THP-1 cells; remark: listed apart in the source

For IFNγ: phagocyte-activating cytokine, the “IL-1a, IL-1b, TNFa, MIP-1alpha and KC response to Mtb, PIF and anti-Kv1.3, effect of IFN” value [1] was “lost” and the “MCP-1, IL-6 and IL-5 response to Mtb and PIF, effect of IFN” value [1] was “stopped”.

For MVRIKPGSANKPSDD [PIF], the “MCP-1 induced monocyte migration in mouse peritonitis model” value (C57bl6 mice) was “inhibits”, the “T cell proliferation with PIF-treated monocytes” value (T cells) was “reduced proliferation but did not block it” and the “VCAM-1, IL-12b and IFNg in THP-1 cells” value (THP-1 cells [2]) was “reduced”. For the same substance, the “allogenic lymphocyte proliferation in MLR” value [3] was “reduce cells proliferation in a dose dependent manner”, the B7-H1 expression (B7-H1) was “up-regulates” and the B7-H1 expression (B7-H1; listed as sPIF) was “significantly increased”. For the same substance, the “Th1/Th2 cytokine analytes, PIF alone” value ([4]; PIF 1, 10 and 50 nM, no stimulation, 24 hours) was “no effect”, the “binding to intracellular insulin degrading enzyme (IDE)” value ([4]; concluded from cell based assay using specific IDE inhibitor) was “bind” and the “MCP-1, IL-6 and IL-5 induction by Mtb, effect of PIF” value [1] was “further induced; also recorded: augmented”. The “MCP-1 secretion by isolated macrophages” value [1] was “increased”, the “MIG and IP10 chemokines, effect of PIF” value [1] was “modestly augmented” and the “TNF, IL-1a, IL-1b, IL-6, MCP-1, MIP1a and KC response of BMDCs to Mtb” value [1] was “increased”. The “TNF, IL-1α, IL-1β, MIP1α and KC induction by Mtb, effect of PIF” value [1] was “augmented”, the “VEGF and FGFb (growth factors) in BMDCs exposed to Mtb” value [1] was “augmented” and the “VEGF and FGFβ induction by Mtb, effect of PIF” value [1] was “promoted; also recorded: augmented”. For the same substance, the “action through Ca++ mobilization” value (Ca++ mobilization) was “does not act through Ca++ mobilization”, the “reduction of plaque area in the aortic root compared to PBS control” value (ApoE−/− mice; PIF 0.1 mg/kg/day, i.p.) was 30% and the “plaque area of the aortic arch compared to both doses of scrPIF” value (ApoE−/− mice; PIF 1 mg/kg/day) was “reduction”. The “reduction of plaque area in the aortic root compared to PBS control” value (ApoE−/− mice; PIF 1 mg/kg/day, i.p.) was 46%, the “reduction of plaque area of the aortic arch compared to PBS control” value (ApoE−/− mice; PIF 1 mg/kg/day, i.p.) was 43% and the “plaque area in the aortic root compared to both doses of scrPIF” value (ApoE−/− mice; higher dose of PIF (1 mg/kg/day)) was “statistically significantly reduced”. For the same substance, the “CD68 in the aortic root and arch” value (ApoE−/− mice; mouse, in vivo) was “reduces”, the “MCP-1 in the aortic root and arch” value (ApoE−/− mice; mouse, in vivo) was “reduces” and the “VCAM-1 in the aortic root and arch” value (ApoE−/− mice; mouse, in vivo) was “reduces”. The “atherosclerosis formation (protective effect)” value (ApoE−/− mice; mouse, in vivo) was “reduces”, the “lipids (Oil Red O staining) in the aortic root and arch” value (ApoE−/− mice; mouse, in vivo) was “reduces” and the “baseline NO” value [5] was “did not affect”. The “binding to LPS chemotypes (SPR)” value [6] was “no apparent LPS binding”, the “elevation of Nos2 expression in liver of semi-allogenic BMT mice” value (Nos2) was “completely prevented” and the “anti-CD3-Mab-stimulated proliferation and mixed lymphocyte reaction” value (human PBMCs) was “blocked”. The “TH2 and TH1 cytokines secretion in activated PBMCs” value (PBMCs) was “increased”, the “TH2 and TH1 cytokines secretion in activated PBMCs” value (PBMCs; listed as sPIF) was “promotes” and the “TH1 (TNF-α, IL2) cytokines in naïve PBMCs” value (PBMCs; naïve PBMCs) was “reduces”. The “cytokine secretion, PIF alone” value (PBMCs; without TCR stimulation, 24-48 hours) was “no significant promoting effect”, the “MCP-1 induced transmigration of THP-1 cells” value (THP-1 cells [7]; PIF 1 μM) was “significantly reduced” and the “MCP-1 induced transmigration of THP-1 cells” value (THP-1 cells [7]; PIF 10 μM) was “significantly reduced”.
